Experimental data taken from PubChem BioAssay (NCI).
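Five compound concentrations were applied to cells in 96-well plates for 48 hours; endpoints were derived by simple linear interpolation of the resulting dose-response curve. GI50: concentration for 50% inhibition of growth. TGI: concentration producing complete growth inhibition.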

How the values were obtained:
Assay in all cases: inhibition of tumour cell growth, NCI panel, 48 h
[1] = system: CCRF-CEM leukemia
[2] = system: 786-0 renal
[3] = system: HL-60(TB) leukemia
[4] = system: OVCAR-5 ovarian
[5] = system: UO-31 renal
[6] = system: EKVX NSCLC
[7] = system: NCI-H23 lung
[8] = system: SN12C renal
[9] = system: DU-145 prostate
[10] = system: SK-MEL-5 melanoma
[11] = system: SF-539 CNS

With COc1ccc(O)c(C=NCCCN=Cc2cc(OC)ccc2O)c1 the TGI [1] was 83.5 µM, the TGI [2] was > 100 µM and the TGI [3] was 28.5 µM. For the same compound, the TGI [4] was > 100 µM, the TGI [5] was > 100 µM and the TGI [6] was 83 µM. The TGI [7] was > 100 µM, the TGI [8] was 83.5 µM and the TGI [9] was 80.5 µM.

For Cc1ccc(S(=O)(=O)OC2C(C3COC(C)(C)O3)OC3OC(C)(C)OC32)cc1 (stereo not drawn), the TGI [1] was > 100 µM, the TGI [2] was > 100 µM and the TGI [4] was > 100 µM. The TGI [5] was > 100 µM, the TGI [6] was > 100 µM and the TGI [7] was > 100 µM. For the same compound, the TGI [8] was > 100 µM, the TGI [9] was > 100 µM and the TGI [10] was > 100 µM.

For CCCCCCCCCCCCCCCCOCC(COP(=O)([O-])OCC[N+](C)(C)C)OCCCCCCCCCCCCCCCC (stereo not drawn), the TGI [11] was > 100 µM, the TGI [1] was > 100 µM and the TGI [3] was > 100 µM. For the same compound, the TGI [4] was > 100 µM, the TGI [5] was > 100 µM and the TGI [6] was > 100 µM. For the same compound, the TGI [7] was > 100 µM, the TGI [8] was > 100 µM and the TGI [10] was > 100 µM.

With COc1cc2c3c(n(CCCNCCCNCCCn4c5c(c6ccccc6c4=O)C(=O)c4ccccc4-5)c(=O)c2cc1OC)-c1cc2c(cc1C3=O)OCO2 the GI50 [11] was < 10 nM, the TGI [2] was 1.07 µM and the GI50 [5] was 27.2 nM. The TGI [5] was 1.69 µM, the GI50 [6] was < 10 nM and the TGI [6] was 0.578 µM. The GI50 [7] was < 10 nM, the TGI [7] was 0.0826 µM and the GI50 [9] was < 10 nM. The TGI [9] was 0.213 µM, the GI50 [10] was 29.8 nM and the TGI [10] was 0.634 µM.

For Clc1c(Cl)c2c(Cl)c(Cl)c1C[P+](c1ccccc1)(c1ccccc1)CC[P+](c1ccccc1)(c1ccccc1)Cc1c(Cl)c(Cl)c(c(Cl)c1Cl)C[P+](c1ccccc1)(c1ccccc1)CC[P+](c1ccccc1)(c1ccccc1)C2, the TGI [11] was 16.2 µM, the TGI [1] was 9.63 µM and the TGI [2] was 19.5 µM. The TGI [4] was 13.2 µM, the TGI [5] was 21.2 µM and the TGI [6] was 21.7 µM. For the same compound, the TGI [7] was 5.25 µM, the TGI [8] was 15.3 µM and the TGI [10] was 3.13 µM.

c1ccc(/N=N/Nc2ccc(-c3nc4ccccc4[nH]3)cc2)nc1 was tested, and the TGI [11] was 31.3 µM, the TGI [1] was 9.79 µM and the TGI [2] was 27.5 µM. For the same compound, the TGI [3] was > 100 µM, the TGI [4] was 84.1 µM and the TGI [5] was 49.3 µM. It also gave a TGI [6] of 52.8 µM, a TGI [7] of 95.8 µM and a TGI [8] of 35.8 µM. For the same compound, the TGI [9] was 27.7 µM and the TGI [10] was > 100 µM.

In the case of O=C(c1cccnc1)N1N=C(c2ccc(Cl)cc2)CC1(O)c1cc(F)c(Cl)cc1Cl (stereo not drawn), the TGI [11] is reported as 28.1 µM, the TGI [1] is reported as > 100 µM and the TGI [2] is reported as 53.8 µM. The TGI [3] was 47.9 µM, the TGI [4] was > 100 µM and the TGI [5] was > 100 µM. The TGI [6] was 76.5 µM, the TGI [7] was > 100 µM and the TGI [8] was 37.5 µM. For the same compound, the TGI [9] was > 100 µM and the TGI [10] was 24.2 µM.

In the case of COc1cc([N+](=O)[O-])ccc1NC1=CC(=O)CCC1, the TGI [11] is reported as > 100 µM, the TGI [1] is reported as > 100 µM and the TGI [2] is reported as > 100 µM. The TGI [3] was > 100 µM, the TGI [4] was > 100 µM and the TGI [5] was > 100 µM. The TGI [6] was > 100 µM, the TGI [7] was > 100 µM and the TGI [8] was > 100 µM. For the same compound, the TGI [9] was > 100 µM and the TGI [10] was > 100 µM.

For O=[n+]1c2ccccc2n([O-])c2cc(Br)ccc21, the TGI [11] was 37.5 µM, the TGI [1] was > 100 µM and the TGI [2] was > 100 µM. The TGI [3] was 7.56 µM, the TGI [4] was > 100 µM and the TGI [5] was 28.1 µM. The TGI [6] was 49.9 µM, the TGI [7] was 49.6 µM and the TGI [8] was 42.3 µM. For the same compound, the TGI [9] was 98.9 µM and the TGI [10] was 39.5 µM.

Compound Oc1ccc(Cn2c(-c3ccc(O)c(O)c3)nc3ccccc32)cc1O has a TGI [11] of 24.1 µM, a TGI [1] of 32.8 µM and a TGI [2] of 29 µM. For the same compound, the TGI [3] was 51.1 µM, the TGI [4] was > 100 µM and the TGI [5] was 47.3 µM. It also gave a TGI [6] of 75.7 µM, a TGI [7] of 75.4 µM and a TGI [8] of 40.6 µM. For the same compound, the TGI [9] was 66.9 µM and the TGI [10] was 50.9 µM.
